Source: patent US20010014682A1, “Fibrinogen receptor antagonists” (SmithKline Beecham Corporation, priority 1997, published 2001)

Biological target: T1, fibrinogen receptor (GPIIb-IIIa) (Homo sapiens, UniProt P05106+P08514)
T1 construct: The lectin-retained GPIIb-IIIa was eluted with buffer A containing 10% dextrose; tissue Red Cross; host or cells: human platelets
Test: Competitive binding to GPIIb-IIIa using [3H]-SK&F-107260 as RGD-type ligand
Conditions: read-out: Ki for inhibition of [3H]-SK&F 107260 binding

T1 sequence (P08514 32-887 limits assumed): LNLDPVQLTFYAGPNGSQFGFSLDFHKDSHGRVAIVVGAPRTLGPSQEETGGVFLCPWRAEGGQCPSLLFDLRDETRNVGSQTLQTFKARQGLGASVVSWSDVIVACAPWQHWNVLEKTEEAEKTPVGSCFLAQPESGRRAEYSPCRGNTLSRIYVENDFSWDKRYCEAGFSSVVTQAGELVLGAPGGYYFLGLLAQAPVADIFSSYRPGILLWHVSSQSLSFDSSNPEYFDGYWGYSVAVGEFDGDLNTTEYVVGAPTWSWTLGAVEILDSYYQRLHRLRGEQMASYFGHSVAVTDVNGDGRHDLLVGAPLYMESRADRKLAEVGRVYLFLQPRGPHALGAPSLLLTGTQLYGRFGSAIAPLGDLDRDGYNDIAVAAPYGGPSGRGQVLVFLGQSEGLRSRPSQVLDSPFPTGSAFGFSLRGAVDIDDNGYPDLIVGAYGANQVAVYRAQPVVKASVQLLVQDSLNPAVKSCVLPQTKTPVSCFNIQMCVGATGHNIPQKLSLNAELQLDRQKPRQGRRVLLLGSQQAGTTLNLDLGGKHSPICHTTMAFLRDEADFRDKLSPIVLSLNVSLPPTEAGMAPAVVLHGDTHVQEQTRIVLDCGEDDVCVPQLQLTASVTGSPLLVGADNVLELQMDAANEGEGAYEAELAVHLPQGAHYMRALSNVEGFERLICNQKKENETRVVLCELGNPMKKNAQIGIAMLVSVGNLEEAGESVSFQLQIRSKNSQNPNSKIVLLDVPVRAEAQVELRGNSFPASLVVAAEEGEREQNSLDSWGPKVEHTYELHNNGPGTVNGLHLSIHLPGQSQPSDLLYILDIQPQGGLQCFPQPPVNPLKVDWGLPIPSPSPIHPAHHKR
T1 sequence (P08514 891-1039 limits assumed): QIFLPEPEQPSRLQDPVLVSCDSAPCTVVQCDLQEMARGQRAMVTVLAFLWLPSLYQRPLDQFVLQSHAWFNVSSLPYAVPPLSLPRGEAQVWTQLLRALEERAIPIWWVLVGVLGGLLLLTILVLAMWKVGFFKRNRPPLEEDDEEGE
T1 sequence (P05106 27-788): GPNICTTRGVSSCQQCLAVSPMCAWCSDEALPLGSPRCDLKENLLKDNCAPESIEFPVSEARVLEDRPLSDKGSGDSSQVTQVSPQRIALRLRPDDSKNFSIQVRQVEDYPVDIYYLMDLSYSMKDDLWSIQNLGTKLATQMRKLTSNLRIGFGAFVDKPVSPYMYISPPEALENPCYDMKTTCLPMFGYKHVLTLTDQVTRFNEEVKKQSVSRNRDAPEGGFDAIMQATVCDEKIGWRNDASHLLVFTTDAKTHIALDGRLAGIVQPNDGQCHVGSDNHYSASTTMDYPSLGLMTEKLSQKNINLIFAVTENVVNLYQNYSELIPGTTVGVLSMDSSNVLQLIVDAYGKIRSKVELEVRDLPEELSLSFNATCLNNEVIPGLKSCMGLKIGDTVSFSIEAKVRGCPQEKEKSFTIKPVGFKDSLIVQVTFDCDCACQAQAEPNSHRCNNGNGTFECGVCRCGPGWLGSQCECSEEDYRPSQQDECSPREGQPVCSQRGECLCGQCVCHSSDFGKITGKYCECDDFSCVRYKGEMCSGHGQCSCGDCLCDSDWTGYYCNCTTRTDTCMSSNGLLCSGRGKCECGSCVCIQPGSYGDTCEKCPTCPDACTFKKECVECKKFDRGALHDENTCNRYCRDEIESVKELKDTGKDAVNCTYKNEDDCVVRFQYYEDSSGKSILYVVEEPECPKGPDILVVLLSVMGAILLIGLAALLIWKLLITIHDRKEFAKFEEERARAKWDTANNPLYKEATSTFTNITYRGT

O=C(Nc1ccc(N2CCNCC2)cc1)C1CCN(C(C(=O)O)c2ccccc2)CC1 (stereo not shown) [Example 1, 4-[(4-(1-piperizinyl)phenyl)aminocarbonyl]-1-piperidine-1-phenylacetic Acid]
Ki: ~3.5 nM
